Measurements taken from patent US9617170B2, “Water treatment” (Kemira Oyj, priority 2012, dated 2017).
Where “and” joins values, the source holds several entries; their conditions need not be identical. Equal values may be shown once.

How the values were obtained:
MS2 [1] = conditions: PAA 7-15 mg/l; cited from earlier work
MS2 [2] = experiment: Disinfection of MS2-spiked wastewater effluent with PFA, UV and PFA+UV (plaque count); parameters: species or system RNA coliphages (MS2)
Description: Freshly prepared DEX-135® was added to wastewater effluent (500 ml) that was spiked with RNA coliphages (MS2) to contain 38534 PFU/ml MS2 and mixed continuously with a magnetic stirrer.
UV disinfection using collimator device: The test was done with 50 ml of wastewater effluent The waters were taken in to the cylinders and that was spiked with RNA coliphages (MS2) to contain 38534 PFU/ml MS2 and mixed. 10 ml of this water was taken in to the Petri dishes (diameter 6 cm) and exposed to UV using collimated beam (intensity I0 on the surface of water […]) with continue mixing with magnet stirrer. […]
Determination of microorganisms: The microbiological analyses were started within a few minutes after disinfection segment of the experiment. MS2 coliphages were determined on phage TYG-agar by basing on old double-agar-layer-method (Adams, 1959), with Escherichia coli ATCC 15597 and 13706, respectively as host bacteria and overnight incubation at 37° C. After incubation, virus plaques were counted and results calculated as PFU/ml (PFU=Plaque Forming Unit) and reduction percentage were also determined. […]
The synergistic index was calculated by the method presented by F. C. […] Here, the synergistic index was calculated using the following formula: Synergistic index SI=Qa/QA+Qb/QB.
Synergistic index was calculated for 1 log reduction.

E. coli = experiment: Disinfection of spiked wastewater effluent with PFA, UV and PFA+UV: E. coli count; parameters: species or system Escherichia coli; conditions: for PFA in combination with UV (Qa): UV 15 mWs/cm^2; for PFA in combination with UV (Qa) / PFA alone (QA): interpolated
Description: (§1) Since the wastewater effluent might contain less than 100 cfu/ml (10^4 cfu/100 ml) of E. coli and Enterococci these microorganisms were spiked to wastewater so that the numbers of these microorganisms would be at the level of 10^4-10^5 cfu/ml allowing to study better reduction. E. coli ATTC 15597 and Enterococcus faecalis ATCC 29212 were produced in tryptone yeast extract broth as overnight shaker cultures at 37° C. and kept at 4° C. during the experiment. The numbers of E. coli and Enterococci (containing thus both the natural and spiked ones) were enumerated from effluent and effluent after disinfections by using Chromocult agar (Merck) and confirmed by indole production for E. coli and Slanetz-Bartley agar (Labema) for Enterococci incubated at 37° C. for 1 and 2 days, respectively.
(§2) The enumerations of E. coli and Enterococci were done as for fresh wastewater keeping the mixture at 4° C. for less than 5 hours before starting the analysis.
(§3) Only UV-irradiation: The spiked wastewater effluent was mixed and treated in a collimator device (UV intensity of 0.22 mW/cm^2 on surface of the solution) to treat UV-irradiations using UV 15 mWs/cm^2 alone, UV 25 mWs/cm^2 alone and UV 50 mWs/cm^2 alone. The enumerations of E. coli and Enterococci were determined as previously.
(§4) E. coli and Enterococci were analyzed by the spread-plate-technique. E. coli were cultivated on Chromocult agar (Merck, KGaA, Germany) and incubated at 37° C. for 21+3 h (preferring 2 days) and Enterococci on Slanez & Bartley agar (Lab M, IDG plc, Bury, Lancashire, UK) and incubated at 37° C. for 48+3 h. E. coli were confirmed by oxidase. Bacterial numbers were calculated as CFU/ml (CFU=Colony Forming Unit) and reductions were also determined. These bacterial determination methods are describes in ISO-9308-1 (E. coli) and SFS-EN ISO 7899-2 (Enterococci).
(§5) The graphs of Log reduction vs. dose were made and the values below were interpolated from the linear function of the data points.

[3] = Decomposition of 8 spiked micropollutants in secondary waste water by PFA and UV (batch reactor); conditions: total reaction time 15 min
Description: The total reaction time was always kept in 15 min and the treatment temperature was between 10-15° C. The concentrations of each micropollutant were analyzed before and after treatment, and the difference was used to calculate the conversion of each compound. Further, a mean value of the conversions (%) of those 8 compounds was calculated to describe the overall efficiency of the treatment.

Enterococci = experiment: Disinfection of spiked wastewater effluent with PFA, UV and PFA+UV: Enterococci count; parameters: species or system Enterococcus faecalis; conditions: for PFA in combination with UV (Qa): UV 15 mWs/cm^2; for PFA in combination with UV (Qa) / PFA alone (QA): interpolated
Description: as §1, §2, §3, §4, §5

[4] = PFA 0.25 mg/l alone, 10 minutes contact

CC(=O)OO [PAA, peracetic acid]
log reduction of MS2 (MS2 [1]): 1-1.5

O=COO [PFA, performic acid]
PFA dose for 1 log reduction of MS2 (MS2 [2]; PFA alone, effluent wastewater, 90% (1 log) removal): 3.5 mg/l | synergy index (SI) (MS2 [2]; UV + PFA, 1 log reduction of MS2): 1 | SI (E. coli; Log reduction 1.5, PFA 0.06 mg/l + UV 15 mWs/cm^2): 0.88 | PFA in combination with UV (Qa) (E. coli; Log reduction 1.5): 0.06 mg/L | PFA alone (QA) (E. coli; Log reduction 1.5): 0.33 mg/L | SI (E. coli; Log reduction 2, PFA 0.22 mg/l + UV 15 mWs/cm^2): 1 and 1.02 | PFA in combination with UV (Qa) (E. coli; Log reduction 2): 0.22 mg/L | PFA alone (QA) (E. coli; Log reduction 2): 0.44 mg/L | Log reduction (E. coli; PFA 0.25 mg/l + UV 25 mWs/cm^2): 3.52 | Log reduction (E. coli; [4]): 1.72 | average conversion (%) of 8 compounds ([3]; PFA 5 mg/l, UV 0 min): 1.66% | average conversion (%) of 8 compounds ([3]; PFA 5 mg/l, UV 1 min): 15.27% | average conversion (%) of 8 compounds ([3]; PFA 5 mg/l, UV 5 min): 28.53% | average conversion (%) of 8 compounds ([3]; PFA 5 mg/l, UV 15 min): 47.86% | average conversion (%) of 8 compounds ([3]; PFA 12.5 mg/l, UV 0 min): 5.15% | average conversion (%) of 8 compounds ([3]; PFA 12.5 mg/l, UV 1 min): 19.25% | average conversion (%) of 8 compounds ([3]; PFA 12.5 mg/l, UV 5 min): 36.25% | average conversion (%) of 8 compounds ([3]; PFA 12.5 mg/l, UV 15 min): 54.18% | average conversion (%) of 8 compounds ([3]; PFA 25 mg/l, UV 0 min): 8.98% | average conversion (%) of 8 compounds ([3]; PFA 25 mg/l, UV 1 min): 16.64% | average conversion (%) of 8 compounds ([3]; PFA 25 mg/l, UV 5 min): 41.61% | average conversion (%) of 8 compounds ([3]; PFA 25 mg/l, UV 15 min (88 mJ/cm^2)): 66.78% | PFA in combination with UV (Qa) (Enterococci; Log reduction 2.5): 0.03 mg/L | PFA alone (QA) (Enterococci; Log reduction 2.5): 0.47 mg/L | PFA in combination with UV (Qa) (Enterococci; Log reduction 3): 0.19 mg/L | PFA alone (QA) (Enterococci; Log reduction 3): 0.56 mg/L | PFA in combination with UV (Qa) (Enterococci; Log reduction 3.5): 0.35 mg/L | PFA alone (QA) (Enterococci; Log reduction 3.5): 0.66 mg/L | PFA in combination with UV (Qa) (Enterococci; Log reduction 4): 0.52 mg/L | PFA alone (QA) (Enterococci; Log reduction 4): 0.75 mg/L | Log reduction (Enterococci; PFA 0.25 mg/l + UV 15 mWs/cm^2): 4.53 | Log reduction (Enterococci; [4]): 3.08
